Data reported in patent US10376520B2, “Methods for the treatment of cardiovascular disorders” (Galapagos NV, priority 2015, dated 2019).

Tested on: Subjects With Active Crohn's Disease
Test: Total cholesterol determination, Study 5 (Crohn's disease, monotherapy of Compound 1)
Assay type: in vivo, human
Conditions: for [Total cholesterol] Mean CFB - 20 weeks results / [Total cholesterol] Median CFB - 20 weeks results: placebo week 0 to 10, to 100 mg q.d. week 10 to 20
From the text: Double-Blind, Randomized, Placebo-Controlled, Multi-Centre Study to Investigate the Efficacy and Safety of Compound 1 in Subjects With Active Crohn's Disease With Evidence of Mucosal Ulceration.
This is a double-blind, randomized, placebo-controlled, multi-centre Phase 2 study to investigate the efficacy and safety of Compound 1 administered once daily for the treatment of active CD with evidence of mucosal ulceration. The pharmacokinetics (including a PK substudy) and pharmacodynamics of Compound 1 and metabolite in CD will also be characterised.
A total of 180 eligible subjects will be randomized to receive Compound 1 or placebo in addition to their stable background treatment (eg, corticosteroids, aminosalicylates, or CD-related antibiotics). The study will consist of 2 parts, with total treatment duration of 20 weeks. Randomization in Part 1 will be stratified according the subject's previous anti-TNF exposure/response, CRP level at Screening, and oral corticosteroid use at visit Day −1.
After the first 10 weeks of treatment in Part 1, patients will be re-randomized for Part 2 as shown in the diagram below and will be stratified according to the subject's clinical response, previous anti-TNF exposure/response, and oral corticosteroid use at visit Day −1.
The following assays were conducted at Eurofins Global Central Laboratory, Bergschot 71, 4817 PA Breda, The Netherlands, and at Quest Diagnostics, Clinical Trials, Quest House, 125-135 Staines Road, Hounslow, Middlesex, TW3 3JB, United Kingdom. The assays for Study 5 were performed at BARC Europe, 3B, Industrie Park, Zwijnaarde, B-9052 Ghent, Belgium.
This method is based on the determination of Δ^4 cholestenone after enzymatic cleavage of the cholesterol ester by cholesterol esterase, conversion of cholesterol by cholesterol oxidase, and subsequent measurement by the Trinder reaction of the hydrogen peroxide formed (Allain et al., 1974).
Cholesterol esters are cleaved by the action of cholesterol esterase to yield free cholesterol and fatty acids. Cholesterol oxidase then catalyzes the oxidation of cholesterol to cholest-4-en-3-one and hydrogen peroxide. In the presence of peroxidase, the hydrogen peroxide formed effects the oxidative coupling of phenol and 4-aminophenazone to form a red quinone-imine dye. The color intensity of the dye formed is directly proportional to the cholesterol concentration. It is determined by measuring the increase in absorbance.
Human serum and plasma samples cholesterol determination was done on a Roche/Hitachi Cobas c 701/702 system which automatically calculate the analyte concentration of each sample.

[1] = Study 5 10 weeks results, 200 mg q.d., week 10
[2] = Study 5 20 weeks results, 200 mg q.d. to 100 mg q.d. at week 10, week 2
[3] = Study 5 20 weeks results, 200 mg q.d. to 100 mg q.d. at week 10, week 4
[4] = Study 5 20 weeks results, 200 mg q.d. to 100 mg q.d. at week 10, week 6
[5] = Study 5 20 weeks results, 200 mg q.d. to 100 mg q.d. at week 10, week 10
[6] = Study 5 20 weeks results, 200 mg q.d. to 100 mg q.d. at week 10, week 12
[7] = Study 5 20 weeks results, 200 mg q.d. to 100 mg q.d. at week 10, week 16
[8] = Study 5 20 weeks results, 200 mg q.d. to 100 mg q.d. at week 10, week 20
[9] = Study 5 20 weeks results, 200 mg q.d. to placebo at week 10, week 2
[10] = Study 5 20 weeks results, 200 mg q.d. to placebo at week 10, week 4
[11] = Study 5 20 weeks results, 200 mg q.d. to placebo at week 10, week 6
[12] = Study 5 20 weeks results, 200 mg q.d. to placebo at week 10, week 10
[13] = Study 5 20 weeks results, 200 mg q.d. to placebo at week 10, week 12
[14] = Study 5 20 weeks results, 200 mg q.d. to placebo at week 10, week 16
[15] = Study 5 20 weeks results, 200 mg q.d. to placebo at week 10, week 20
[16] = Study 5 20 weeks results, continued 200 mg q.d., week 2
[17] = Study 5 20 weeks results, continued 200 mg q.d., week 4
[18] = Study 5 20 weeks results, continued 200 mg q.d., week 6
[19] = Study 5 20 weeks results, continued 200 mg q.d., week 10
[20] = Study 5 20 weeks results, continued 200 mg q.d., week 12
[21] = Study 5 20 weeks results, continued 200 mg q.d., week 16
[22] = Study 5 20 weeks results, continued 200 mg q.d., week 20
[23] = Study 5 20 weeks results, placebo to 100 mg q.d. at week 10, week 12
[24] = Study 5 20 weeks results, placebo to 100 mg q.d. at week 10, week 16
[25] = Study 5 20 weeks results, placebo to 100 mg q.d. at week 10, week 20

SMILES: O=C(Nc1nc2cccc(-c3ccc(CN4CCS(=O)(=O)CC4)cc3)n2n1)C1CC1 [Compound 1, cyclopropanecarboxylic acid {5-[4-(1,1-dioxo-thiomorpholin-4-ylmethyl)-phenyl]-[1,2,4]triazolo[1,5-a]pyridin-2yl}-amide]
- [Total cholesterol] Median CFB [1]: 0.340 mmol/L
- [total cholesterol] Mean CFB [1]: 0.401 mmol/L
- [Total cholesterol] Median CFB [2]: 0.19 mmol/L
- [total cholesterol] Mean CFB [2]: 0.18 mmol/L
- [Total cholesterol] Median CFB [3]: 0.12 mmol/L
- [total cholesterol] Mean CFB [3]: 0.27 mmol/L
- [Total cholesterol] Median CFB [4]: 0.28 mmol/L
- [total cholesterol] Mean CFB [4]: 0.26 mmol/L
- [Total cholesterol] Median CFB [5]: 0.38 mmol/L
- [total cholesterol] Mean CFB [5]: 0.44 mmol/L
- [Total cholesterol] Median CFB [6]: 0.33 mmol/L
- [total cholesterol] Mean CFB [6]: 0.23 mmol/L
- [Total cholesterol] Median CFB [7]: 0.13 mmol/L
- [total cholesterol] Mean CFB [7]: 0.09 mmol/L
- [Total cholesterol] Median CFB [8]: 0.10 mmol/L
- [total cholesterol] Mean CFB [8]: 0.14 mmol/L
- [Total cholesterol] Median CFB [9]: 0.24 mmol/L
- [total cholesterol] Mean CFB [9]: 0.16 mmol/L
- [Total cholesterol] Median CFB [10]: 0.34 mmol/L
- [total cholesterol] Mean CFB [10]: 0.27 mmol/L
- [Total cholesterol] Median CFB [11]: 0.29 mmol/L
- [total cholesterol] Mean CFB [11]: 0.22 mmol/L
- [Total cholesterol] Median CFB [12]: 0.23 mmol/L
- [total cholesterol] Mean CFB [12]: 0.22 mmol/L
- [Total cholesterol] Median CFB [13]: 0.18 mmol/L
- [total cholesterol] Mean CFB [13]: 0.04 mmol/L
- [Total cholesterol] Median CFB [14]: 0.05 mmol/L
- [total cholesterol] Mean CFB [14]: 0.19 mmol/L
- [Total cholesterol] Median CFB [15]: 0.07 mmol/L
- [total cholesterol] Mean CFB [15]: 0.18 mmol/L
- [Total cholesterol] Median CFB [16]: 0.21 mmol/L
- [total cholesterol] Mean CFB [16]: 0.27 mmol/L
- [Total cholesterol] Median CFB [17]: 0.16 mmol/L
- [total cholesterol] Mean CFB [17]: 0.14 mmol/L
- [Total cholesterol] Median CFB [18]: 0.33 mmol/L
- [total cholesterol] Mean CFB [18]: 0.19 mmol/L
- [Total cholesterol] Median CFB [19]: 0.47 mmol/L
- [total cholesterol] Mean CFB [19]: 0.43 mmol/L
- [Total cholesterol] Median CFB [20]: 0.29 mmol/L
- [total cholesterol] Mean CFB [20]: 0.42 mmol/L
- [Total cholesterol] Median CFB [21]: 0.31 mmol/L
- [total cholesterol] Mean CFB [21]: 0.43 mmol/L
- [Total cholesterol] Median CFB [22]: 0.26 mmol/L
- [total cholesterol] Mean CFB [22]: 0.40 mmol/L
- [Total cholesterol] Median CFB [23]: 0.02 mmol/L
- [total cholesterol] Mean CFB [23]: 0.11 mmol/L
- [Total cholesterol] Median CFB [24]: 0.01 mmol/L
- [total cholesterol] Mean CFB [24]: 0.08 mmol/L
- [Total cholesterol] Median CFB [25]: 0.10 mmol/L
- [total cholesterol] Mean CFB [25]: 0.03 mmol/L
- [Total cholesterol] Mean CFB - 20 weeks results (week 12): 2.49%
- [Total cholesterol] Median CFB - 20 weeks results (week 12): 0.41%
- [Total cholesterol] Mean CFB - 20 weeks results (week 16): 2.84%
- [Total cholesterol] Median CFB - 20 weeks results (week 16): 0.19%
- [Total cholesterol] Mean CFB - 20 weeks results (week 20): 1.90%
- [Total cholesterol] Median CFB - 20 weeks results (week 20): 2.81%
